Data on one substance can be found in patent US20250049090A1, “A NUTRITIONAL SUPPLEMENT FOR IMPROVED GUT HEALTH” (Haleon US Holdings LLC, priority 2021, published 2025).

The test system of one assay is total bacteria. The assay is described as follows: In vitro gut model batch culture fermentation, FISH-FCM enumeration of total bacteria (Eub). The assay is classed as cell-based, human faecal bacteria. Conditions: until 48 h, WD experiment; 'except' = not elevated. The method, then: (§1) In vitro gut model batch culture fermentations were run for 72 hours. Samples were collected for bacterial enumeration and organic acid production through fluorescent in situ hybridisation combined with flow cytometry and gas chromatography, respectively. Overall, the main findings were that the ZnC supplementation combined with WD increased in Bifidobacterium spp., and Clostridium histolyticum group but this finding was not shown in the vessels consisting of the ZnC components only. […] Optimising the dose and substrate availability is important to ensure homeostasis and prevent potential pathogenic bacterial growth. […]
(§2) A 750 μl sample was collected from each vessel at timepoints 0, 8, 24, 48 and 72 hours. […] The subsequent pellet was used for bacterial enumeration through fluorescence in situ hybridisation flow-cytometry (FISH-FCM) and 500 μl of supernatant used to assess organic acid production via gas chromatography. […]
(§3) All statistical results were analysed in Prism 8 version 8.4.0 (GraphPad Prism 8, San Diego, California, USA). The FISH-FCM and organic acid production were analysed using two-way mixed ANOVA to compare different test substrates and time points. […]

The subject of a further assay is human gut microbiota. The assay is described as follows: In vitro gut model batch culture fermentation, organic acid production by gas chromatography. Type of assay: cell-based. Conditions: 'except' = not significantly elevated. The protocol:
as §1, §2, §3

For assay [1] the following is noted: healthy volunteers under high stress or when diarrhoea was induced; cited from earlier work.
The conditions of assay [2]: ZnC supplementation 150 mg/day for 1 week; cited from earlier work.

Zinc carnosine [ZnC]: the “total bacteria counts elevated” value with total bacteria is on record as “except”. The “propionate compared to baseline” value in the assay with human gut microbiota (24, 48 and 72 h, WD experiment) is “except”. Moreover, the “acetate compared to baseline” value with human gut microbiota (72 h, PHGG experiment) is “except”. The intestinal barrier function result in assay [1] is given as “maintained or improved”. Also, the “UC clinical outcomes and remission” value in assay [2] is reported as “improve”.
